# Measurements reported in patent publication US10787462B2, “Heterocyclic compound” (TAKEDA PHARMACEUTICAL COMPANY LIMITED, priority 2015, dated 2020).
# Counter-ions that a name gives are not always drawn.
# Molecular target: T1, human RIPK1 (1-375) (Homo sapiens, UniProt Q13546)
# T1 construct: human RIPK1 (1-375) gene; GST; made in house; host or cells: Sf-9 insect cells
# T1 sequence (Q13546 1-375): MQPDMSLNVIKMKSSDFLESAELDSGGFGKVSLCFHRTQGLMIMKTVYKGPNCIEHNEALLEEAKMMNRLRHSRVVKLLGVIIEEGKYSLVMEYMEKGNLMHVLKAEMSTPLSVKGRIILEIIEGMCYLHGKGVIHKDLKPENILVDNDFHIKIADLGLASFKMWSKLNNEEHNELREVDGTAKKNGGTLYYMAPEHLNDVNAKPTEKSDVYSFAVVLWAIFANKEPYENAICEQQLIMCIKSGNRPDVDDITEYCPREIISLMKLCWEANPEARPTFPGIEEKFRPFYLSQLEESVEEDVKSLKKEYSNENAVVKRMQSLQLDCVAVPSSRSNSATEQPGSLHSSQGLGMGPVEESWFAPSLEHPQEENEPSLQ
# Experiment: Human RIPK1 enzyme inhibitory effect (ADP-Glo Kinase Assay)
# Format: biochemical
# Details: read-out: human RIPK1 enzyme inhibitory effect at 10 μM (% inhibition)
# Method: Experimental Example 1: Human RIPK1 Enzyme Inhibitory Effect
# Enzyme was prepared by transducing human RIPK1 (1-375) gene to Sf-9 insect cells, and purifying using GST affinity column, and enzyme activity evaluation was performed using the enzyme. The enzyme was used after preservation at −70° C. The RIPK1 enzyme inhibitory activity of the test compound was measured using ADP-Glo™ Kinase Assay (Promega) according the following experiment methods. The test compound diluted with assay buffer (25 mM HEPES (pH 7.5), 10 mM MgCl2, 0.01% Tween-20, 2 mM DTT) was added to 384 well plate by each 2 μL. Next, RIPK1 enzyme solution diluted with the assay buffer was added thereto by each 2 μL, and the mixture was incubated at room temperature for 20 min. After the incubation, 0.6 mM ATP solution was added thereto by each 2 μL to initiate an enzyme reaction. The mixture was incubated at room temperature for 120 min, and ADP-Glo solution prepared according to Promega protocol was added to the 384 well plate by each 3 μL, and the reaction was performed at room temperature for 40 min. Then, Kinase-Detection solution was added to the 384 well plate by each 6 μL, and the reaction was performed at room temperature for 40 min. After the reaction, the luminescence intensity was measured by plate reader Envision (PerkinElmer).
row,SMILES,inhibition at 10 µM [%]
1,"CN1C(=O)[C@@H](N2CCc3c(nn(Cc4ccccc4)c3C(N)=O)C2=O)COc2ccccc21 [Example 50, 2-benzyl-6-((3S)-5-methyl-4-oxo-2,3,4,5-tetrahydro-1,5-benzoxazepin-3-yl)-7-oxo-4,5,6,7-tetrahydro-2H-pyrazolo[3,4-c]pyridine-3-carboxamide]",99

# Same assay, conditions: read-out: human RIPK1 enzyme inhibitory effect at 10 μM (% inhibition), 10 μM test compound; well without enzyme = 100% inhibition
row,inhibition at 10 µM [%],SMILES
1,101,"CNC(=O)c1ccc2c(c1)OC[C@H](N1CCc3c(nn(Cc4ccccc4F)c3Cl)C1=O)C(=O)N2C [Example 47, (3S)-3-(3-chloro-2-(2-fluorobenzyl)-7-oxo-2,4,5,7-tetrahydro-6H-pyrazolo[3,4-c]pyridin-6-yl)-N,5-dimethyl-4-oxo-2,3,4,5-tetrahydro-1,5-benzoxazepine-8-carboxamide]"
2,98,"COc1c2c(nn1Cc1ccccc1)C(=O)N([C@H]1COc3ccccc3N(C)C1=O)CC2 [Example 48, (3S)-3-(2-benzyl-3-methoxy-7-oxo-2,4,5,7-tetrahydro-6H-pyrazolo[3,4-c]pyridin-6-yl)-5-methyl-2,3-dihydro-1,5-benzoxazepin-4(5H)-one]"
3,87,"CN1C(=O)[C@@H](N2CCc3c(nn(Cc4ccccc4)c3O)C2=O)COc2ccccc21 [Example 49, (3S)-3-(2-benzyl-3-hydroxy-7-oxo-2,4,5,7-tetrahydro-6H-pyrazolo[3,4-c]pyridin-6-yl)-5-methyl-2,3-dihydro-1,5-benzoxazepin-4(5H)-one]"
4,99,"CCOC(=O)c1c2c(nn1Cc1ccccc1)C(=O)N([C@H]1COc3ccccc3N(C)C1=O)CC2 [Example 51, ethyl 2-benzyl-6-((3S)-5-methyl-4-oxo-2,3,4,5-tetrahydro-1,5-benzoxazepin-3-yl)-7-oxo-4,5,6,7-tetrahydro-2H-pyrazolo[3,4-c]pyridine-3-carboxylate]"
5,98,"CN1C(=O)[C@@H](N2CCc3c(nn(Cc4ccccc4)c3CO)C2=O)COc2ccccc21 [Example 52, (3S)-3-(2-benzyl-3-(hydroxymethyl)-7-oxo-2,4,5,7-tetrahydro-6H-pyrazolo[3,4-c]pyridin-6-yl)-5-methyl-2,3-dihydro-1,5-benzoxazepin-4(5H)-one]"
6,67,"CN1C(=O)[C@@H](N2CCc3c(nn(Cc4ccccc4)c3C(=O)O)C2=O)COc2ccccc21 [Example 53, 2-benzyl-6-((3S)-5-methyl-4-oxo-2,3,4,5-tetrahydro-1,5-benzoxazepin-3-yl)-7-oxo-4,5,6,7-tetrahydro-2H-pyrazolo[3,4-c]pyridine-3-carboxylic acid]"
7,93,"COc1ccc(Cn2c(Cc3ccccc3)nc3c2CCN([C@H]2COc4ccccc4N(C)C2=O)C3=O)cc1 [Example 54, (3S)-3-(2-benzyl-1-(4-methoxybenzyl)-4-oxo-1,4,6,7-tetrahydro-5H-imidazo[4,5-c]pyridin-5-yl)-5-methyl-2,3-dihydro-1,5-benzoxazepin-4(5H)-one]"
8,96,"CN1C(=O)[C@@H](N2CCc3[nH]c(Cc4ccccc4)nc3C2=O)COc2ccccc21 [Example 55, (3S)-3-(2-benzyl-4-oxo-1,4,6,7-tetrahydro-5H-imidazo[4,5-c]pyridin-5-yl)-5-methyl-2,3-dihydro-1,5-benzoxazepin-4(5H)-one trifluoroacetate]"
9,96,"CN1C(=O)[C@@H](N2CCc3c(nc(Cc4ccccc4)n3C)C2=O)COc2ccccc21 [Example 56, (3S)-3-(2-benzyl-1-methyl-4-oxo-1,4,6,7-tetrahydro-5H-imidazo[4,5-c]pyridin-5-yl)-5-methyl-2,3-dihydro-1,5-benzoxazepin-4(5H)-one]"
10,101,"CN1C(=O)[C@@H](N2CCc3c(nn(Cc4ccccc4)c3Cl)C2=O)COc2cc(Br)ccc21 [Example 58, (3S)-3-(2-benzyl-3-chloro-7-oxo-2,4,5,7-tetrahydro-6H-pyrazolo[3,4-c]pyridin-6-yl)-8-bromo-5-methyl-2,3-dihydro-1,5-benzoxazepin-4(5H)-one]"
11,97,"CN1C(=O)[C@@H](N2CCc3c(nn(Cc4ccccc4)c3Cl)C2=O)COc2cc(C3COC3)ccc21 [Example 59, (3S)-3-(2-benzyl-3-chloro-7-oxo-2,4,5,7-tetrahydro-6H-pyrazolo[3,4-c]pyridin-6-yl)-5-methyl-8-(oxetan-3-yl)-2,3-dihydro-1,5-benzoxazepin-4(5H)-one]"
12,100,"CN1C(=O)[C@@H](N2CCc3c(nn(Cc4ccccc4)c3Cl)C2=O)COc2cc(-c3nccn3C)ccc21 [Example 60, (3S)-3-(2-benzyl-3-chloro-7-oxo-2,4,5,7-tetrahydro-6H-pyrazolo[3,4-c]pyridin-6-yl)-5-methyl-8-(1-methyl-1H-imidazol-2-yl)-2,3-dihydro-1,5-benzoxazepin-4(5H)-one]"

# Further lines, the molecule ahead of its results:
row,SMILES,inhibition at 10 µM [%]
1,"CN1C(=O)[C@@H](N2CCc3cn(Cc4ncccn4)nc3C2=O)COc2ccccc21 [Example 36, (3S)-5-methyl-3-(7-oxo-2-(pyrimidin-2-ylmethyl)-2,4,5,7-tetrahydro-6H-pyrazolo[3,4-c]pyridin-6-yl)-2,3-dihydro-1,5-benzoxazepin-4(5H)-one]",86
2,"CN1C(=O)[C@@H](N2CCc3cn(CC4CCCC4)nc3C2=O)COc2ccccc21 [Example 37, (3S)-3-(2-(cyclopentylmethyl)-7-oxo-2,4,5,7-tetrahydro-6H-pyrazolo[3,4-c]pyridin-yl)-5-methyl-2,3-dihydro-1,5-benzoxazepin-4(5H)-one]",100
3,"CN1C(=O)[C@@H](N2CCc3cn(CC4COCCO4)nc3C2=O)COc2ccccc21 (stereo partly drawn) [Example 38, (3S)-3-(2-(1,4-dioxan-2-ylmethyl)-7-oxo-2,4,5,7-tetrahydro-6H-pyrazolo[3,4-c]pyridin-6-yl)-5-methyl-2,3-dihydro-1,5-benzoxazepin-4(5H)-one]",96
4,"CN1C(=O)[C@@H](N2CCc3cn(Cc4ccn(C)n4)nc3C2=O)COc2ccccc21 [Example 39, (3S)-5-methyl-3-(2-((1-methyl-1H-pyrazol-3-yl)methyl)-7-oxo-2,4,5,7-tetrahydro-6H-pyrazolo[3,4-c]pyridin-6-yl)-2-,3-dihydro-1,5-benzoxazepin-4(5H)-one]",92
5,"CN1C(=O)[C@@H](N2CCc3cn(Cc4ccccc4)nc3C2=O)COc2ccc(Br)cc21 [Example 40, (3S)-3-(2-benzyl-7-oxo-2,4,5,7-tetrahydro-6H-pyrazolo[3,4-c]pyridin-6-yl)-7-bromo-5-methyl-2,3-dihydro-1,5-benzoxazepin-4(5H)-one]",100
6,"CN1C(=O)[C@@H](N2CCc3cn(Cc4ccccc4)nc3C2=O)COc2cc(Br)ccc21 [Example 41, (3S)-3-(2-benzyl-7-oxo-2,4,5,7-tetrahydro-6H-pyrazolo[3,4-c]pyridin-6-yl)-8-bromo-5-methyl-2,3-dihydro-1,5-benzoxazepin-4(5H)-one]",101
7,"CN1C(=O)[C@@H](N2CCc3cn(Cc4cnccn4)nc3C2=O)COc2ccccc21 [Example 42, (3S)-5-methyl-3-(7-oxo-2-(pyrazin-2-ylmethyl)-2,4,5,7-tetrahydro-6H-pyrazolo[3,4-c]pyridin-6-yl)-2,3-dihydro-1,5-benzoxazepin-4(5H)-one]",99
8,"CN1C(=O)[C@@H](N2CCc3cn(Cc4ccccc4F)nc3C2=O)COc2cc(C#N)ccc21 [Example 43, (3S)-3-(2-(2-fluorobenzyl)-7-oxo-2,4,5,7-tetrahydro-6H-pyrazolo[3,4-c]pyridin-6-yl)-5-methyl-4-oxo-2,3,4,5-tetrahydro-1,5-benzoxazepine-8-carbonitrile]",97
9,"CNC(=O)c1ccc2c(c1)OC[C@H](N1CCc3c(nn(Cc4ccccc4)c3Cl)C1=O)C(=O)N2C [Example 44, (3S)-3-(2-benzyl-3-chloro-7-oxo-2,4,5,7-tetrahydro-6H-pyrazolo[3,4-c]pyridin-6-yl)-N,5-dimethyl-4-oxo-2,3,4,5-tetrahydro-1,5-benzoxazepine-8-carboxamide]",100
10,"CN1C(=O)[C@@H](N2CCc3cn(Cc4c(F)cccc4F)nc3C2=O)COc2cc(C#N)ccc21 [Example 45, (3S)-3-(2-(2,6-difluorobenzyl)-7-oxo-2,4,5,7-tetrahydro-6H-pyrazolo[3,4-c]pyridin-6-yl)-5-methyl-4-oxo-2,3,4,5-tetrahydro-1,5-benzoxazepine-8-carbonitrile]",101
11,"CNC(=O)c1ccc2c(c1)OC[C@H](N1CCc3c(nn(Cc4c(F)cccc4F)c3Cl)C1=O)C(=O)N2C [Example 46, (3S)-3-(3-chloro-2-(2,6-difluorobenzyl)-7-oxo-2,4,5,7-tetrahydro-6H-pyrazolo[3,4-c]pyridin-6-yl)-N,5-dimethyl-4-oxo-2,3,4,5-tetrahydro-1,5-benzoxazepine-8-carboxamide]",100
